Literature values as cited in publication PMC9042378 (RSC Advances, 2021).

System: Tyr

Row | Molecule | Tyr inhibition type
1 | O=C1c2c(O)cc(O)cc2O[C@H](c2cc(O)c(O)c(O)c2)[C@H]1O [dihydromyricetin] | Mixed inhibition
2 | CCC(C)C(=O)c1c(O)c(Cc2c(O)c(C)c(O)c(C(=O)C(C)C)c2O)c(O)c2c1OC(C)(C)C=C2 (centres unmarked) [mallotophilippen A] | Mixed inhibition
3 | O=c1cc(CO)occ1O [kojic acid] | Mixed inhibition
4 | mallotophilippen B | Mixed inhibition
5 | O=C(O[C@@H]1Cc2c(O)cc(O)cc2O[C@@H]1c1ccc(O)c(O)c1)c1cc(O)c(O)c(O)c1 [epicatechin gallate] | Mixed inhibition
